“And” between values parts separate entries of the source, which are not always exact repeats. Equal entries are not always repeated. Marks after values point to notes of the source that are not given here.
What was measured:
[1] = tested on: subjects with type 2 diabetes and nephropathy; test: Example 2: Phase 2b randomized, double-blind, placebo-controlled 12-week study conducted in Japan; conditions: for Any adverse event / Any adverse event leading to discontinuation of study drug / Death / Fatal adverse event / Possibly or probably drug-related adverse event / Serious adverse event / Severe adverse event: N = 19; for Weight, LS Mean Change from Baseline (SE): Week 12; for UACR Change from Baseline LS Mean (SE) / UACR Geometric Mean Change (Percent): baseline to final on-treatment measurement
Description: The primary efficacy endpoint in this study was the change from Baseline to Week 12 in log-transformed UACR with the primary analysis conducted using MMRM with fixed effects for treatment, visit, and treatment-by-visit interaction, with baseline measurement and baseline-by-visit interaction as covariates.
All safety analyses were performed on treatment-emergent adverse events only. Treatment-emergent adverse events were defined as those that first occurred or worsened on or after the date of first dose of study drug through 30 days after the last dose of study drug.

[2] = tested on: subjects with type 2 diabetes and nephropathy; test: Example 3: Phase 2b randomized, double-blind, placebo-controlled 8-week study with thoracic bioimpedance; assay type: in vivo, human; conditions: for Death / Fatal adverse event: N = 16; for UACR Change from Baseline LS Mean (SE) / UACR Geometric Mean Change (Percent): baseline to final on-treatment measurement
Text: This study also included measurement of thoracic bioimpedance to assess the potential for thoracic fluid retention with atrasentan.
An equal percentage of subjects in all 3 groups experienced an adverse event (81.3%). […] (Table 17).
A mean decrease of 4 ohms in thoracic bioimpedance, as measured by the ZOE® Fluid Status Monitor, is considered clinically indicative of thoracic fluid overload. Mean thoracic bioimpedance fluctuated in all treatment groups over time, with greater mean changes in the 2 atrasentan groups than in the placebo group.

## CCCCN(CCCC)C(=O)CN1C[C@H](c2ccc3c(c2)OCO3)[C@@H](C(=O)O)[C@@H]1c1ccc(OC)cc1 [Atrasentan, (2R,3R,4S)-4-(1,3-benzodioxol-5-yl)-1-[2-(dibutylamino)-2-oxoethyl]-2-(4-methoxyphenyl)pyrrolidine-3-carboxylic acid]
[1]; 0.75 mg
  Any adverse event: 17 (89.5) N (%) of Subjects
  Any adverse event leading to discontinuation of study drug: 1 (5.3) N (%) of Subjects
  Death: 0 N (%) of Subjects
  Fatal adverse event: 0 N (%) of Subjects
  Possibly or probably drug-related adverse event: 7 (36.8) N (%) of Subjects
  Serious adverse event: 3 (15.8) N (%) of Subjects
  Severe adverse event: 1 (5.3) N (%) of Subjects
[1]; 0.75 mg/day
  Cholesterol, Difference (95% CI) from placebo: −26.1 (−42.77, −9.33) mg/dL
  Cholesterol, Final On-Treatment Visit Mean (SD): 173.5 (30.52) mg/dL
  Cholesterol, LS Mean Change from Baseline (SE): −28.0 (5.27) mg/dL
  HDL-C, Difference (95% CI) from placebo: −1.0 (−6.89, 4.91) mg/dL
  HDL-C, Final On-Treatment Visit Mean (SD): 48.8 (12.65) mg/dL
  HDL-C, LS Mean Change from Baseline (SE): −2.8 (1.86) mg/dL
  Had ≧30% Reduction in UACR and No Edema (no moderate or severe adverse event of edema): 8 (42.1) Number (%) of Subjects
  Hemoglobin, Difference (95% CI) from placebo: −1.22 (−1.863, −0.586) g/dL
  Hemoglobin, Final On-Treatment Visit Mean (SD): 11.74 (1.963) g/dL
  LDL-C, Difference (95% CI) from placebo: −19.4 (−33.56, −5.30) mg/dL
  LDL-C, Final On-Treatment Visit Mean (SD): 94.4 (29.10) mg/dL
  LDL-C, LS Mean Change from Baseline (SE): −18.6 (4.45) mg/dL
  Percentage of Subjects with ≧30% Reduction in Log-Transformed UACR from Baseline to Final Measurement: 52.6%
  Percentage of Subjects with ≧40% Reduction in Log-Transformed UACR from Baseline to Final Measurement: 31.6%
  Percentage of Subjects with ≧50% Reduction in Log-Transformed UACR from Baseline to Final Measurement: 21.1%
  Triglycerides, Difference (95% CI) from placebo: −32.9 (−74.44, 8.66) mg/dL
  Triglycerides, Final On-Treatment Visit Mean (SD): 148.1 (64.63) mg/dL
  Triglycerides, LS Mean Change from Baseline (SE): −28.8 (50.42) mg/dL
  Weight, Difference (95% CI) from placebo: 0.1 (−1.13, 1.36) kg
  Weight, Final On-Treatment Visit Mean (SD): 69.4 (13.26) kg
  fatigue leading to discontinuation: 1.7%
  geometric mean reduction in UACR, baseline to final on-treatment measurement: 31.44%
  incidence of peripheral edema: 21.1%
  mean (non-ambulatory) diastolic blood pressure change from baseline to last on-treatment visit: −5.74 mmHg
  mean ambulatory diastolic blood pressure change from baseline to Week 10: −6.0 mmHg
  mean ambulatory systolic blood pressure change from baseline to Week 10: −5.1 mmHg
  mean duration of edema: 38.2 days
  peripheral edema leading to discontinuation: 3.4%
  subjects discontinued from the study: 10.5%
  subjects who discontinued study drug because of adverse events: 5.3%
  Weight, LS Mean Change from Baseline (SE): 0.2 (0.45) kg
  UACR Change from Baseline LS Mean (SE): −0.38 (0.10) log mg/g creatinine
  UACR Geometric Mean Change (Percent): −31.44%
[1]; 0.75 mg/day vs placebo
  UACR Between-group Comparison Difference (95% CI): −0.41 (−0.69, −0.13)
[1]; 0.75 mg/day, Week 10
  mean eGFR, difference between atrasentan and placebo: statistically significant
[1]; 0.75 mg/day, increased
  mean (non-ambulatory) systolic blood pressure change from baseline to last on-treatment visit: 1.93 mmHg
[1]; 1.25 mg
  Any adverse event: 14 (73.7) N (%) of Subjects
  Any adverse event leading to discontinuation of study drug: 5 (26.3)* N (%) of Subjects
  Death: 0 N (%) of Subjects
  Fatal adverse event: 0 N (%) of Subjects
  Possibly or probably drug-related adverse event: 10 (52.6) N (%) of Subjects
  Serious adverse event: 2 (10.5) N (%) of Subjects
  Severe adverse event: 1 (5.3) N (%) of Subjects
[1]; 1.25 mg/day
  Cholesterol, Difference (95% CI) from placebo: −25.0 (−41.95, −8.04) mg/dL
  Cholesterol, Final On-Treatment Visit Mean (SD): 169.6 (37.60) mg/dL
  Cholesterol, LS Mean Change from Baseline (SE): −26.9 (5.41) mg/dL
  HDL-C, Difference (95% CI) from placebo: −2.3 (−8.24, 3.73) mg/dL
  HDL-C, Final On-Treatment Visit Mean (SD): 46.4 (12.12) mg/dL
  HDL-C, LS Mean Change from Baseline (SE): −4.1 (1.91) mg/dL
  Had ≧30% Reduction in UACR and No Edema (no moderate or severe adverse event of edema): 9 (52.9) Number (%) of Subjects
  Hemoglobin, Difference (95% CI) from placebo: −1.14 (−1.773, −0.497) g/dL
  Hemoglobin, Final On-Treatment Visit Mean (SD): 11.67 (2.300) g/dL
  LDL-C, Difference (95% CI) from placebo: −19.7 (−34.02, −5.36) mg/dL
  LDL-C, Final On-Treatment Visit Mean (SD): 92.1 (35.00) mg/dL
  LDL-C, LS Mean Change from Baseline (SE): −18.9 (4.57) mg/dL
  Percentage of Subjects with ≧30% Reduction in Log-Transformed UACR from Baseline to Final Measurement: 64.7%
  Percentage of Subjects with ≧40% Reduction in Log-Transformed UACR from Baseline to Final Measurement: 64.7%
  Percentage of Subjects with ≧50% Reduction in Log-Transformed UACR from Baseline to Final Measurement: 52.9%
  Triglycerides, Difference (95% CI) from placebo: −16.5 (−58.63, 25.64) mg/dL
  Triglycerides, Final On-Treatment Visit Mean (SD): 160.6 (73.37) mg/dL
  Triglycerides, LS Mean Change from Baseline (SE): −12.4 (68.76) mg/dL
  Weight, Difference (95% CI) from placebo: 0.4 (−0.96, 1.68) kg
  Weight, Final On-Treatment Visit Mean (SD): 74.9 (14.51) kg
  fatigue leading to discontinuation: 3.1%
  geometric mean reduction in UACR, baseline to final on-treatment measurement: 53.76%
  incidence of peripheral edema: 31.6%
  mean (non-ambulatory) diastolic blood pressure change from baseline to last on-treatment visit: −4.33 mmHg
  mean (non-ambulatory) systolic blood pressure change from baseline to last on-treatment visit: −2.93 mmHg
  mean ambulatory diastolic blood pressure change from baseline to Week 10: −6.8 mmHg
  mean ambulatory systolic blood pressure change from baseline to Week 10: −7.2 mmHg
  mean duration of edema: 54.8 days
  peripheral edema leading to discontinuation: 4.7%
  subjects discontinued from the study: 26.3%
  subjects who discontinued study drug because of adverse events: 26.3%
  Weight, LS Mean Change from Baseline (SE): 0.4 kg and 0.4 (0.49) kg
  UACR Change from Baseline LS Mean (SE): −0.77 (0.10) log mg/g creatinine
  UACR Geometric Mean Change (Percent): −53.76%
[1]; 1.25 mg/day vs placebo
  UACR Between-group Comparison Difference (95% CI): −0.80 (−1.09, −0.52)
[1]; 1.25 mg/day, Weeks 6, 8, and 10
  mean eGFR, difference between atrasentan and placebo: statistically significant
[1]; all treatment groups, changes not clinically meaningful
  mean HDL-C change: decreased slightly
[1]; both atrasentan groups (0.75 mg, 1.25 mg)
  cholesterol and LDL-C, differences from placebo: statistically significant
[1]; both atrasentan groups, at Week 2 and throughout the study
  hemoglobin relative to placebo: Statistically significantly mean decreases
[2]; 0.5 mg
  Death: 0 N (%) of Subjects
  Fatal adverse event: 0 N (%) of Subjects
[2]; 0.5 mg/day
  Cholesterol, Difference (95% CI) from placebo: 3.6 (−19.26, 26.46) mg/dL
  Cholesterol, Final On-Treatment Visit Mean (SD): 155.1 (40.36) mg/dL
  Cholesterol, LS Mean Change from Baseline (SE): −1.5 (7.05) mg/dL
  HDL-C, Difference (95% CI) from placebo: 1.9 (−3.54, 7.28) mg/dL
  HDL-C, Final On-Treatment Visit Mean (SD): 41.1 (9.92) mg/dL
  HDL-C, LS Mean Change from Baseline (SE): −0.5 (1.67) mg/dL
  Had ≧30% Reduction in UACR and No Edema (no moderate or severe adverse event of edema): 31.3%
  LDL-C, Difference (95% CI) from placebo: 3.1 (−19.49, 25.75) mg/dL
  LDL-C, Final On-Treatment Visit Mean (SD): 68.1 (23.33) mg/dL
  LDL-C, LS Mean Change from Baseline (SE): −0.3 (6.67) mg/dL
  Percentage of Subjects with ≧30% Reduction in Log-Transformed UACR from Baseline to Final Measurement: 50.0%
  Percentage of Subjects with ≧40% Reduction in Log-Transformed UACR from Baseline to Final Measurement: 31.3%
  Percentage of Subjects with ≧50% Reduction in Log-Transformed UACR from Baseline to Final Measurement: 18.8%
  Triglycerides, Difference (95% CI) from placebo: −29.8 (−14.09, 44.49) mg/dL
  Triglycerides, Final On-Treatment Visit Mean (SD): 206.1 (71.42) mg/dL
  Triglycerides, LS Mean Change from Baseline (SE): −2.3 (22.89) mg/dL
  geometric mean reduction in UACR, baseline to final on-treatment measurement: 27.7%
  UACR Change from Baseline LS Mean (SE): −0.32 log mg/g creatinine
  UACR Geometric Mean Change (Percent): −27.69%
[2]; 0.5 mg/day vs placebo
  UACR Between-group Comparison Difference (90% CI): 0.04 (−0.28, 0.36)
[2]; 1.25 mg
  Death: 0 N (%) of Subjects
  Fatal adverse event: 0 N (%) of Subjects
[2]; 1.25 mg/day
  Cholesterol, Difference (95% CI) from placebo: −14.7 (−37.99, 8.54) mg/dL
  Cholesterol, Final On-Treatment Visit Mean (SD): 169.4 (46.02) mg/dL
  Cholesterol, LS Mean Change from Baseline (SE): −19.9 (7.30) mg/dL
  HDL-C, Difference (95% CI) from placebo: −1.4 (−6.89, 4.13) mg/dL
  HDL-C, Final On-Treatment Visit Mean (SD): 53.9 (22.23) mg/dL
  HDL-C, LS Mean Change from Baseline (SE): −3.7 (1.73) mg/dL
  Had ≧30% Reduction in UACR and No Edema (no moderate or severe adverse event of edema): 28.6%
  LDL-C, Difference (95% CI) from placebo: −9.8 (−33.30, 13.64) mg/dL
  LDL-C, Final On-Treatment Visit Mean (SD): 78.9 (37.01) mg/dL
  LDL-C, LS Mean Change from Baseline (SE): −13.3 (7.21) mg/dL
  Percentage of Subjects with ≧30% Reduction in Log-Transformed UACR from Baseline to Final Measurement: 42.9%
  Percentage of Subjects with ≧40% Reduction in Log-Transformed UACR from Baseline to Final Measurement: 42.9%
  Percentage of Subjects with ≧50% Reduction in Log-Transformed UACR from Baseline to Final Measurement: 35.7%
  Triglycerides, Difference (95% CI) from placebo: −31.0 (−108.09, 46.10) mg/dL
  Triglycerides, Final On-Treatment Visit Mean (SD): 187.1 (115.90) mg/dL
  Triglycerides, LS Mean Change from Baseline (SE): −3.5 (24.59) mg/dL
  geometric mean reduction in UACR, baseline to final on-treatment measurement: 37.4%
  total cholesterol, LDL-C, and triglycerides compared with placebo: greater mean decreases
  UACR Change from Baseline LS Mean (SE): −0.47 log mg/g creatinine
  UACR Geometric Mean Change (Percent): −37.45%
[2]; 1.25 mg/day vs placebo
  UACR Between-group Comparison Difference (90% CI): −0.11 (−0.43, 0.21)
